From patent publication US20230142026A1, “COMPOSITION FOR ENHANCING DROUGHT AND OSMOTIC STRESS RESISTANCE, AND THEIR USES” (REPUBLIC OF KOREA (MANAGEMENT : RURAL DEVELOPMENT …, priority 2019, published 2023)

Tests used:
[1] = test system: Dongjin rice plants; experiment: Water consumption of compound-treated rice plants in 50-ml tube; type: in vivo; details: three 14-day plants, control 19.9 g
Method: (§1) In addition, the third leaves of rice of the experimental and control groups treated with ABA (5 μM) and S17 (various concentrations, 10 and 20 μM), respectively, for one day were cut, and the water loss rate was compared therebetween. […] The amount of water in a 50-ml tube that was used for 2 days by three Dongjin rice plants which had been grown for 14 days in a nutrient solution was measured. The control group used 19.9 g of water on average for 2 days, the group treated with ABA (5 μM) used 8.7 g of water, and the groups treated with 10 μM S17 and 20 μM S17 used 14.7 g and 12.5 g of water, respectively (FIG. 2E).

[2] = test system: pABRE-DRE::fLUC with OsPP2C51 or OsPP2C68; experiment: pABRE-DRE::fLUC reporter in rice protoplasts co-expressing OsPP2C51 or OsPP2C68 (ABA signaling inhibitors); type: cell-based
Excerpt: In addition, in order to investigate the signal transduction process activated by the S17 compound, the dephosphorylation enzyme, OsPP2C51 or OsPP2C68 gene, which inhibits ABA signaling, and reporter transporters (pABRE-DRE::fLUC, pUbi10::rLUC) were simultaneously transiently expressed in rice protoplasts and then treated with ABA and the S17 compound to identify the expression of the reporter.

[3] = test system: pABRE-DRE::fLUC; experiment: Induction of environmental stress response: pABRE-DRE::fLUC reporter in rice protoplasts; type: cell-based; details: 15 hours after treatment
Method: Rice protoplasts were transiently transformed with a pABRE-DRE::fLUC transporter, which induces the expression of the reporter gene, luciferase, in response to the plant environmental stress resistance hormone ABA (abscisic acid), and were then treated with 90 kinds of compounds having a structure similar to ABA received from the Korea Chemical Bank, and a compound that enhances the expression of the reporter was selected from the compounds and referred to as “S17”.
In order to verify the effect of inducing response to environmental stress of the S17 compound compared with ABA, pABRE-DRE::fLUC and the transformation marker pUbi10::rLUC transporter were transiently expressed in rice protoplasts, and then treated with ABA and the S17 compound. After 15 hours, the degree of expression of fLUC was detected.

[4] = test system: rice; experiment: Drought resistance (drying experiment) of S17-treated rice; type: in vivo
Method: An experimental group, in which rice grown in a nutrient solution for 14 days was treated with S17, was compared with an untreated control group to determine whether or not S17 induces drought resistance. 3 days after treatment with S17, the nutrient solution fed to the experimental and control plants was removed to induce drought stress. The plants were allowed to be dried (for 12 to 24 hours) and water was fed again to the control and experimental groups, and the rate of the surviving plants was measured (FIGS. 2A and 2B). […] The dry weight of the experimental group was measured. […] This is considered to be due to the effect of inhibiting growth occurring during the treatment with S17.

[5] = test system: rice; experiment: Water loss rate of cut third leaves of compound-treated rice; type: in vivo; details: one day
Method: as §1

[6] = test system: rice; experiment: Osmotic stress resistance of S17-treated rice using mannitol; type: in vivo
Method: Thus, the effects of S17 on osmotic stress were detected. Osmotic stress was induced using mannitol in 14-day-old rice after treatment with S17. The experimental group treated with 5 μM and 10 μM of S17 and the untreated control group were treated with 0 mM, 100 mM, and 200 mM of mannitol, and the growth of these plants was observed (FIG. 3A).
In addition, in order to determine the osmotic stress resistance and growth-enhancing effect, osmotic stress was induced using mannitol in 14-day-old rice treated with S17. The experimental group treated with 5 μM and 10 μM of S17 and the untreated control group were treated with 0 mM, 100 mM, and 200 mM of mannitol, and then the water consumption of these plants and the dry weight after the experiment were measured (FIG. 3). […] As the concentration of mannitol increased, the amount of water used in plants decreased due to osmotic pressure stress.

In the case of `O=C(O)/C=C/c1ccsc1` [S17], the “amount of water used for 2 days” value ([1]; 10 μM) is reported as 14.7 g, the “amount of water used for 2 days” value ([1]; 20 μM) is reported as 12.5 g and the “expression of fLUC with OsPP2C51 or OsPP2C68” value [2] is reported as “induced”. For the same compound, the “degree of expression of fLUC” value [3] was “significantly expressed”, the average survival rate ([4]; 14-day rice, 3 days after S17 treatment, dried 12 to 24 hours, water fed again, control 16.6%) was 76.7% and the “dry weight relative to average weight of control group” value ([4]; after drying experiment) was 91.5%. The water loss rate ([5]; S17 10 and 20 μM) was “decreased water loss rate”, the “water consumption rate compared to the control group” value ([6]; 5 μM S17, 0 mM mannitol) was 97.5% and the “amount of water used vs control not treated with S17” value ([6]; 5 μM S17, 100 mM mannitol) was 120%. The “dry weight compared to the group treated with 0 μM of S17” value ([6]; 5 μM S17, 100 mM mannitol) was 101%, the “amount of water used vs control not treated with S17” value ([6]; 5 μM S17, 200 mM mannitol) was 119% and the “dry weight compared to the group treated with 0 μM of S17” value ([6]; 5 μM S17, 200 mM mannitol) was 106%. The “dry weight compared to the group treated with 0 μM of S17” value ([6]; 5 μM S17, no mannitol) was 97%, the “leaf curling caused by osmotic stress” value ([6]; 5 μM and 10 μM S17, 0, 100, 200 mM mannitol) was “significantly reduced” and the “water consumption rate compared to the control group” value ([6]; 10 μM S17, 0 mM mannitol) was 78%. The “amount of water used vs control not treated with S17” value ([6]; 10 μM S17, 100 mM mannitol) was 106%, the “dry weight compared to the group treated with 0 μM of S17” value ([6]; 10 μM S17, 100 mM mannitol) was 104% and the “amount of water used vs control not treated with S17” value ([6]; 10 μM S17, 200 mM mannitol) was 128%. The “dry weight compared to the group treated with 0 μM of S17” value ([6]; 10 μM S17, 200 mM mannitol) was 112% and the “dry weight compared to the group treated with 0 μM of S17” value ([6]; 10 μM S17, no mannitol) was 82%.

With `CC1=CC(=O)CC(C)(C)[C@@]1(O)/C=C/C(C)=C\C(=O)O` [ABA, abscisic acid, reference compound] the “amount of water used for 2 days” value ([1]; 5 μM) was 8.7 g, the “expression of fLUC with OsPP2C51 or OsPP2C68” value [2] was “inhibited” and the water loss rate ([5]; ABA 5 μM) was “decreased water loss rate”.
